The test system of one assay is Aedes mosquitoes. In words: GC-EAD antennal responses, Aedes mosquitoes from the field. From the text:
Electroantennogram signals were filtered and amplified (100×; 0.1-500 Hz) using an A-M 1800 amplifier (Sequim, Wash., USA) connected to a personal computer via a BNC-2090A analog-to-digital board (National Instruments, Austin, Tex., USA) and digitized at 20 Hz using WinEDR software (Strathclyde Electrophysiology Software, Glasgow, UK). A Hum Bug noise eliminator (Quest Scientific, Vancouver, Canada) was used to decrease electrical noise. The antennal responses to peaks eluting from the GC were measured for each mosquito preparation, and each peak and mosquito species. Bioactive peaks were those that elicited strong EAD responses, corresponding to deflections beyond the average noise floor of the baseline EAD signal. Responses by each individual preparation were used for Principal Component Analysis (Ade4 package, R). The responses of eight different mosquito species were tested to the scent extracts of three orchid species (n=8 mosquito species for P. obtusata; n=4 mosquito species each for P. stricta and P. huronensis; with 3-17 replicates per mosquito species per orchid, for a total of 109 GC-EAD experiments).
Individual mosquitoes were isolated in Falcon™ tubes (Thermo Fisher Scientific, Pittsburgh, Pa., USA) covered with a piece of fine mesh. They were maintained in a climatic chamber, as previously described, and identified immediately before running the experiment. Carbon dioxide delivered through a pad (Genesee Scientific, San Diego, Calif., USA) was used to briefly anesthetize mosquitoes before transferring them on ice for the dissection. The head was excised and the tip (i.e., one segment) of each antenna was cut off with fine scissors under a binocular microscope (Carl Zeiss, Oberkochen, Germany). The head was then mounted on an electrode composed of a silver wire 0.01″ (A-M Systems, Carlsbord, Wash., USA) and a borosilicate pulled capillary (Sutter Instrument Company, Novato, Calif., USA) filled with a 1:3 mix of saline (L. B. Thien, F. Utech, The mode of pollination in Habenaria obtusata (Orchidaceae). American Journal of Botany 57, 1031-1035 (1970) and electrode gel (Parker Laboratories, Fairfield, N.J., USA) in order to avoid the preparation to desiccate during the experiment. The head was mounted by the neck on the reference electrode. The preparation was then moved to the GC-EAD with the tips of the antennae inserted under the microscope (Optiphot-2, Nikon, Tokyo, Japan) into a recording electrode, that was identical to the reference electrode. The mounted antennae were oriented at 90° from the main airline which was carrying filtered air (Praxair, Danbury, Conn., USA) and volatiles eluting from the Gas-Chromatograph to the preparation via a 200° C. transfer line (EC-05; Syntech GmbH, Buchenbach, Germany). Five microliters of the orchid extract were injected into the Gas Chromatograph with Flame Ionization Detection (Agilent 7820A GC, Agilent Technologies; DB5 column, J&W Scientific, Folsom, Calif., USA). The oven program was the same as the one used for the GC-MS analyses of the scent extracts. The transfer line from the GC to the preparation was set to 200° C.

Assay [1] deals with Ae. increpitus mosquito antennal lobe (AL) glomeruli. In words: Two-photon calcium imaging (Fluo4) of the antennal lobe, Ae. increpitus. In kind it is in vivo. To be noted: single odorants. Here is the method:
Odor-evoked responses in the Ae. increpitus mosquito antennal lobe (AL) with nine female mosquitoes at the beginning of the season when mosquitoes were relatively young (as defined by wing and scale appearance). Calcium imaging experiments were conducted using application of the calcium indicator Fluo4 to the mosquito brain and using a stage that allows simultaneous calcium imaging and tethered flight. The mosquito was cooled on ice and transferred to a Peltier-cooled holder that enables the mosquito to head to be fixed to the stage using ultraviolet glue. The custom stage permits the superfusion of saline to the head capsule and space for movement by the wings and proboscis. Once the mosquito was fixed to the stage, a window in its head was cut to expose the brain, and the brain was continuously superfused with physiological saline. Next, the perineural sheath was gently removed from the AL using fine forceps and 75 μL of the Fluo4 solution—made by […] of Fluo4 in 30 μL Pluronic F-127 and then subsequently diluted in 950 μL of mosquito physiological saline—was pipetted to the holder allowing the brain to be completely immersed in the dye. Mosquitoes were kept in the dark at 15° C. for 1.5 h (the appropriate time for adequate penetration of the dye into the tissue), after which the brain was washed 3 times with physiological saline. After the rinse, mosquitoes were kept in the dark at room temperature for approximately 10-20 min. before imaging.
Wing stroke amplitudes were acquired and analyzed using a custom camera-based computer vision system at frame rates of 100 Hz, where the mosquito was illuminated with infrared LEDs (880 nm) and images were collected with an infrared-sensitive camera synched to the two-photon system. Stimulus-evoked initiation of flight and changes in the amplitude of the wing-stroke envelope were characterized for each odor stimulus. Calcium-evoked responses in the AL were imaged using the Prairie Ultima IV two-photon excitation microscope (Prairie Technologies) and Ti-Sapphire laser (Chameleon Ultra; Coherent). Experiments were performed at a depth of 40 μm from the ventral surface of the AL, allowing the calcium dynamics from approximately 18-22 glomeruli to be repeatedly imaged across preparations. Images were collected at 2 Hz, and for each odor stimulus images were acquired for 35 s, starting 10 s before the stimulus onset. Imaging data were extracted in Fiji/ImageJ and imported into Matlab (v2017; Mathworks, Natick, Mass.) for Gaussian filtering (2×2 pixel; σ=1.5-3) and alignment using a single frame as the reference at a given imaging depth and subsequently registered to every frame to within ¼ pixel. Trigger-averaged ΔF/F was used for comparing glomerular responses between odor stimuli. […]

In the next assay the test system is Ae. aegypti AL glomeruli. Nature of the assay: Two-photon calcium imaging (PUb-GCaMP6s) of the antennal lobe, Ae. aegypti. To be noted: for LC2 glomerulus response: single odorants; for effect of GABA-receptor antagonists on AM2 response to the P. obtusata scent / effect of GABA-receptor antagonists on LC2 and AM2 responses to the P. stricta scent: 1 μM CGP54626, 10 μM picrotoxin focally applied together on to the AL; for AM2 response with increasing dose: different concentrations; for AM2 glomerulus response: odor stimulation; for glomerular responses in the AL: imaged at 40 μm depth, particularly AL3 and LC2 glomeruli for the mixture. In kind it is in vivo. The source says: A total of twenty preparations were used: 10 for single odorant and orchid mixture experiments; 6 for ratio experiments; and 4 for experiments using GABA-receptor antagonists. […] The expression of GCaMP occurred in glia, local interneurons, and projection neurons. […] Thus, in the calcium imaging experiments care was taken to image from the central regions of the glomeruli and avoid the sheaths and external glomerular loci. […] Relatedly, GCaMP6s expression is very high in AL local interneurons and projection neurons (PNs), such that during odor stimulation the PNs and axonal processes can often be imaged, and 3D reconstructions can be take place through simultaneous optical sections with odor stimulation. Nonetheless, the glomerular responses were assumed to be a function of multiple cell types.
Similar to experiments with Ae. increpitus, the majority the mosquitoes were UV-glued to the stage to allow free movement of their wings and proboscis; however, for experiments using GABA-receptor antagonists the proboscis was glued to the stage for additional stability. Once the mosquito was fixed to the stage, a window in its head was cut to expose the brain, and the brain was continuously superfused with physiological saline.
Thus a provisional atlas was created with female mosquitoes (n=6) that allowed for cross-reference of the imaged glomeruli and comparison of their positions and structures to those described in the atlas. This was accomplished via clear glomerular boundaries, especially during odor stimulation, and the distinct odorant tuning of glomeruli throughout the depths of the AL (e.g., AM2 responsive to DEET; LC2 and AL3 responsive to nonanal; PD3 responsive to geosmin; and MD2 responsive to CO2) that allowed 3D registration across preparations and subsequent warping and referencing with the atlas.
Saline and pharmacological agents. The saline was made based on the Beyenbach and Masia recipe (L. B. Thien, F. Utech, The mode of pollination in Habenaria obtusata (Orchidaceae). American Journal of Botany 57, 1031-1035 (1970)) and contained 150.0 mM NaCl, 25.0 mM N-2-hydroxyethyl-piperazine-N′-2-ethanesulfonic acid (HEPES), 5.0 mM sucrose, 3.4 mM KCl, 1.8 mM NaHCO3, 1.7 mM CaCl2, and 1.0 mM MgCl2. The pH was adjusted to 7 with 1 M NaOH. […] […] A drip system comprising two 100 mL reservoirs—one containing the GABA receptor antagonists, and the other saline—converged on the two-channel temperature controller to facilitate rapid switching from normal physiological saline solution to the antagonists and back. Antagonists were superfused directly into the holder near to the opening of the head capsule and recorded neuropil. The odor-evoked responses were first recorded under normal physiological saline solution and then repeated under GABA receptor antagonists diluted in normal saline solution, and finally the normal saline wash. All calcium imaging data were statistically analyzed using Kruskal-Wallis tests with multiple comparisons and visualized using Principal Components Analysis. Analyses were performed in Matlab (v2017; Mathworks, Natick, Mass.).
Olfactory stimuli were delivered to the mosquito by pulses of air diverted through a 2 mL cartridge containing a piece of filter paper bearing the odor stimulus (2 An air line provided gentle and constant charcoal-filtered air at 1 m/s to the antennae allowing continuous ventilation to prevent adaptation of the olfactory receptor cells. The stimulus output was positioned in the air line 2 cm from and orthogonal to the mosquito antennae. For testing different ratios of lilac aldehyde and nonanal, two syringes bearing different concentrations of the odorants were used and positioned such that the outputs were positioned in the same location in the air stream. […]

Setting [2] is: scents of P. stricta and P. huronensis, Ae. increpitus, Ae. communis, Ae. canadensis and Culiseta sp.
Where [3] appears, read: odorant tuning used for glomerular registration.
The mark [4] stands for this setting: lilac aldehyde and nonanal at different concentration ratios.

Entries after “also recorded” stand apart in the source; their conditions may differ.

For the molecule `C=CC(C)(O)CCC=C(C)C` (racemic) [linalool], the “antennal responses (GC-EAD)” value with Aedes mosquitoes (setting [2]) is reported as “all responded”.
For `CCCCCCCCO` [1-octanol], the LC2 glomerulus response result (in assay [1]; in the assay on Ae. aegypti AL glomeruli) was “strongest response” each time.
Consider `C[C@H](NC[C@H](O)CP(=O)(O)CC1CCCCC1)c1ccc(Cl)c(Cl)c1` [CGP54626, reference compound], for which, in the assay on Ae. aegypti AL glomeruli, the “effect of GABA-receptor antagonists on AM2 response to the P. obtusata scent” value is on record as “the effect of nonanal was blocked”; the “effect of GABA-receptor antagonists on LC2 and AM2 responses to the P. stricta scent” value is “blocked the symmetrical inhibition by nonanal and lilac aldehyde”.
Consider `O=C=O` [CO2, reference compound], for which the MD2 glomerulus response entry in the assay on Ae. aegypti AL glomeruli (setting [3]) is reported as “responsive”.
In the case of `CCN(CC)C(=O)c1cccc(C)c1` [DEET, N,N-diethyl-meta-toluamide, reference compound], in the assay with Ae. aegypti AL glomeruli, the “AM2 response with increasing dose” value is recorded as “significant increases in response with increasing dose” and the AM2 glomerulus response result is “responsive”.
Consider `O=Cc1ccccc1` [benzaldehyde], for which the “antennal responses (GC-EAD)” value in the assay with Aedes mosquitoes (setting [2]) is reported as “all responded”.
Regarding `C=C1C2CCC(C2)C1(C)C` (stereo not drawn) [camphene], the “antennal responses (GC-EAD)” value in the assay on Aedes mosquitoes (peaks of the P. obtusata scent) is “evoked antennal responses”.
In the case of `CC1CCCC2(C)CCCCC12O` (stereo not drawn) [geosmin, reference compound], the PD3 glomerulus response entry in the assay on Ae. aegypti AL glomeruli (setting [3]) is “responsive”.
In the case of `C=CC1(C)CCC(C(C)C=O)O1` (stereo not drawn) [lilac aldehyde, 5-dimethyl-5-ethenyl-2-tetrahydrofuranacetaldehydes], in the assay with Ae. aegypti AL glomeruli, the “AM2 response with increasing dose” value is recorded as “significant increases in response with increasing dose”, the “glomerular responses in the AL” value is reported as “strong responses” and the AM2 glomerulus response entry is “strongest response; also recorded: responsive”. Moreover, in the assay on Ae. aegypti AL glomeruli (setting [4]), the “AM2 response to lilac aldehyde/nonanal mixtures” value is recorded as “increased AM2 activation” and the “LC2 response to lilac aldehyde/nonanal mixtures” value is recorded as “suppressed the response of LC2 to nonanal”. Further, the “AM2 glomerulus response to orchid mixtures” value in the assay on Ae. aegypti AL glomeruli (mixtures with lilac aldehyde scaled to other Platanthera species, compared with P. obtusata, Kruskal-Wallis p<0.05) is recorded as “significant increase in AM2 responses”. In the assay with Ae. aegypti AL glomeruli (mixtures with lilac aldehyde scaled to other Platanthera species, nonanal as in the P. obtusata mixture, Kruskal-Wallis p<0.05), the “LC2 glomerulus response to orchid mixtures” value is “significant suppression of LC2 response”. Further, the “antennal responses (GC-EAD)” value with Aedes mosquitoes (high concentration in the scent of P. stricta, lesser in P. huronensis, antennae of Ae. increpitus and Ae. communis) is reported as “relatively strong responses”. For the same molecule, the “antennal responses (GC-EAD)” value with Aedes mosquitoes (peaks of the P. obtusata scent) was “evoked antennal responses”. For the same molecule, the “antennal responses (GC-EAD)” value in the assay with Aedes mosquitoes (setting [2]) is given as “all responded”.
`CCCCCCCC=O` [octanal]: the LC2 glomerulus response result (in assay [1]; in the assay on Ae. aegypti AL glomeruli) was “strongest response” each time. For the same molecule, in the assay on Ae. aegypti AL glomeruli, the “glomerular responses in the AL” value is “strong responses”. Moreover, in the assay with Aedes mosquitoes (peaks of the P. obtusata scent), the “antennal responses (GC-EAD)” value was “evoked antennal responses”.
Regarding `CC1=CCC2CC1C2(C)C` (stereo not drawn) [α-pinene], in the assay on Aedes mosquitoes (peaks of the P. obtusata scent), the “antennal responses (GC-EAD)” value is “evoked antennal responses”.
As for `C=CC(=C)CCC=C(C)C` [β-myrcene], the “antennal responses (GC-EAD)” value with Aedes mosquitoes (setting [2]) is given as “all responded”.
Take `C=C1CCC2CC1C2(C)C` (stereo not drawn) [β-pinene]: the “antennal responses (GC-EAD)” value in the assay on Aedes mosquitoes (peaks of the P. obtusata scent) is listed as “evoked antennal responses”.
Regarding picrotoxin [reference compound], in the assay with Ae. aegypti AL glomeruli, the “effect of GABA-receptor antagonists on AM2 response to the P. obtusata scent” value is reported as “the effect of nonanal was blocked”; the “effect of GABA-receptor antagonists on LC2 and AM2 responses to the P. stricta scent” value was “blocked the symmetrical inhibition by nonanal and lilac aldehyde”.
